Results from patent US8080657B2, “Compounds of reverse turn mimetics and the use thereof” (Choongwae Pharma Corporation, priority 2008, dated 2011).

The compounds below were run on Wnt signaling (assay: TopFlash reporter gene bioassay in SW480 cells). Settings: Homo sapiens, SW480, TopFlash reporter gene assay, inhibition of Wnt signaling; read-out: RGA, IC50 (μM) TopF.
Assay type: cell-based

Row | Structure (SMILES) | IC50
1 | C=CCN1CC(=O)N2[C@@H](Cc3ccc(O)cc3)C(=O)N(Cc3cccc(C(N)=O)c3)C[C@@H]2N1C(=O)NCc1ccccc1 [compound 207] | 3.25 ± 0.41 µM
2 | C=CCN1CC(=O)N2[C@@H](Cc3ccc(O)cc3)C(=O)N(Cc3cccc(C(=O)N4CCCCC4)c3)C[C@@H]2N1C(=O)NCc1ccccc1 [compound 114] | 1.42 ± 0.51 µM
3 | C=CCN1CC(=O)N2[C@@H](Cc3ccc(O)cc3)C(=O)N(Cc3cccc4c(-c5ccccc5)c[nH]c34)C[C@@H]2N1C(=O)NCc1ccccc1 [compound 10] | 0.3 ± 0.06 µM
4 | C=CCN1CC(=O)N2[C@@H](Cc3ccc(O)cc3)C(=O)N(Cc3ccccc3SC)C[C@@H]2N1C(=O)NCc1ccccc1 [compound 17] | 0.42 ± 0.04 µM
5 | C=CCN1CC(=O)N2[C@@H](Cc3ccc(O)cc3)C(=O)N(Cc3cccc(C(C)=O)c3)C[C@@H]2N1C(=O)NCc1ccccc1 [compound 73] | 0.9 ± 0.27 µM
6 | C=CCN1CC(=O)N2[C@@H](Cc3ccc(O)cc3)C(=O)N(Cc3csc4ccc(N)cc34)C[C@@H]2N1C(=O)NCc1ccccc1 [compound 100] | 1.21 ± 0.14 µM
7 | C=CCN1CC(=O)N2[C@@H](Cc3ccc(O)cc3)C(=O)N(Cc3cn(CCC)c4ccccc34)C[C@@H]2N1C(=O)NCc1ccccc1 [compound 159] | 14.1 ± 2.3 µM
8 | C=CCN1CC(=O)N2[C@@H](Cc3ccc(O)cc3)C(=O)N(Cc3ccc(OC)c(OC)c3)C[C@@H]2N1C(=O)NCc1ccccc1 [compound 175] | 2.36 ± 0.57 µM
9 | C=CCN1CC(=O)N2[C@@H](Cc3ccc(O)cc3)C(=O)N(Cc3ccc(F)c4scnc34)C[C@@H]2N1C(=O)NCc1ccc(F)c(F)c1 [compound 80] | 0.96 ± 0.13 µM
10 | C=CCN1CC(=O)N2[C@@H](Cc3ccc(O)cc3)C(=O)N(Cc3cccnc3Br)C[C@@H]2N1C(=O)NCc1ccccc1 [compound 125] | 1.57 ± 0.29 µM
11 | C=CCN1CC(=O)N2[C@@H](Cc3ccc(O)cc3)C(=O)N(Cc3cccc(OC)c3OC3CCCC3)C[C@@H]2N1C(=O)NCc1ccccc1 [compound 139] | 1.89 ± 0.38 µM
12 | C=CCN1CC(=O)N2[C@@H](Cc3ccc(O)cc3)C(=O)N(Cc3cccc(OC)c3OS(=O)(=O)CCCCCCCC)C[C@@H]2N1C(=O)NCc1ccccc1 [compound 161] | 14.4 ± 2.77 µM
13 | C=CCN1CC(=O)N2[C@@H](Cc3ccc(O)cc3)C(=O)N(Cc3cccc(-c4cccc(C(N)=O)c4)c3)C[C@@H]2N1C(=O)NCc1ccccc1 [compound 60] | 0.79 ± 0.1 µM
14 | C=CCN1CC(=O)N2[C@@H](Cc3ccc(O)cc3)C(=O)N(Cc3ccnc(C(N)=O)c3)C[C@@H]2N1C(=O)NCc1ccccc1 [compound 153] | 10.8 ± 1.97 µM
15 | C=CCN1CC(=O)N2[C@@H](Cc3ccc(O)cc3)C(=O)N(Cc3csc4cc(NC(=O)NC)ccc34)C[C@@H]2N1C(=O)NCc1ccccc1 [compound 155] | 11.8 ± 1.61 µM
16 | C=CCN1CC(=O)N2[C@@H](Cc3ccc(O)cc3)C(=O)N(Cc3cccc(C(=O)NCCOC)c3)C[C@@H]2N1C(=O)NCc1ccccc1 [compound 91] | 1.04 ± 0.18 µM
17 | C=CCN1CC(=O)N2[C@@H](Cc3ccc(O)cc3)C(=O)N(Cc3ccccc3OC(F)F)C[C@@H]2N1C(=O)NCc1ccccc1 [compound 58] | 0.78 ± 0.13 µM
18 | C=CCN1CC(=O)N2[C@@H](Cc3ccc(O)cc3)C(=O)N(Cc3ccc(OCCCCC)cc3)C[C@@H]2N1C(=O)NCc1ccccc1 [compound 154] | 11.8 ± 0.9 µM
19 | C=CCN1CC(=O)N2[C@@H](Cc3ccc(O)cc3)C(=O)N(Cc3ccc(OCCC)cc3)C[C@@H]2N1C(=O)NCc1ccccc1 [compound 247] | 6.66 ± 0.88 µM
20 | C=CCN1CC(=O)N2[C@@H](Cc3ccc(O)cc3)C(=O)N(Cc3cccc(C(=O)O)c3)C[C@@H]2N1C(=O)NCc1ccc(Cl)cc1Cl [compound 119] | 1.51 ± 0.16 µM
21 | C=CCN1CC(=O)N2[C@@H](Cc3ccc(O)cc3)C(=O)N(Cc3cccc(Br)c3)C[C@@H]2N1C(=O)NCc1ccccc1 [compound 52] | 0.73 ± 0.09 µM
22 | C=CCN1CC(=O)N2[C@@H](Cc3ccc(OS(N)(=O)=O)cc3)C(=O)N(Cc3cccc(C(N)=O)c3)C[C@@H]2N1C(=O)NCc1ccccc1 [compound 229] | 4.78 ± 0.69 µM
23 | C=CCN1CC(=O)N2[C@@H](Cc3ccc(O)cc3)C(=O)N(Cc3cccc(C(=O)N(C)C)n3)C[C@@H]2N1C(=O)NCc1ccccc1 [compound 197] | 21.8 ± 3.69 µM
24 | C=CCN1CC(=O)N2[C@@H](Cc3ccc(O)cc3)C(=O)N(Cc3cccc(-c4cccnc4)c3)C[C@@H]2N1C(=O)NCc1ccccc1 [compound 12] | 0.34 ± 0.12 µM
25 | C=CCN1CC(=O)N2[C@@H](Cc3ccc(O)cc3)C(=O)N(Cc3cccc4ccn(S(=O)(=O)c5ccc(C)cc5)c34)C[C@@H]2N1C(=O)NCc1ccccc1 [compound 64] | 0.82 ± 0.33 µM

Row | Structure (SMILES) | IC50
26 | C=CCN1CC(=O)N2[C@@H](Cc3ccc(O)cc3)C(=O)N(Cc3cccc(C(=O)OC)c3[N+](=O)[O-])C[C@@H]2N1C(=O)NCc1ccccc1 [compound 131] | 1.66 ± 0.27 µM
27 | C=CCN1CC(=O)N2[C@@H](Cc3ccc(O)cc3)C(=O)N(Cc3cccc(NS(N)(=O)=O)c3)C[C@@H]2N1C(=O)NCc1ccccc1 [compound 243] | 5.81 ± 0.58 µM
28 | C=CCN1CC(=O)N2[C@@H](Cc3ccc(O)cc3)C(=O)N(Cc3ccc(F)c4scnc34)C[C@@H]2N1C(=O)NCCc1cccs1 [compound 104] | 1.27 ± 0.1 µM
29 | C=CCN1CC(=O)N2[C@@H](Cc3ccc(O)cc3)C(=O)N(Cc3cccnc3-c3cccc(C#N)c3)C[C@@H]2N1C(=O)NCc1ccccc1 [compound 257] | 7.26 ± 1.3 µM
30 | C=CCN1CC(=O)N2[C@@H](Cc3ccc(O)cc3)C(=O)N(Cc3cccc(C4CC4)n3)C[C@@H]2N1C(=O)NCc1ccccc1 [compound 95] | 1.1 ± 0.12 µM
31 | C=CCN1CC(=O)N2[C@@H](Cc3ccc(O)cc3)C(=O)N(Cc3csc4cc(NCCC)ccc34)C[C@@H]2N1C(=O)NCc1ccccc1 [compound 66] | 0.84 ± 0.09 µM
32 | C=CCN1CC(=O)N2[C@@H](Cc3ccc(O)cc3)C(=O)N(Cc3csc4c([N+](=O)[O-])cccc34)C[C@@H]2N1C(=O)NCc1ccccc1 [compound 59] | 0.78 ± 0.15 µM
33 | C=CCN1CC(=O)N2[C@@H](Cc3ccc(O)cc3)C(=O)N(Cc3cccc(C(=O)NCc4cccs4)c3)C[C@@H]2N1C(=O)NCc1ccccc1 [compound 53] | 0.73 ± 0.03 µM
34 | C=CCN1CC(=O)N2[C@@H](Cc3ccc(O)cc3)C(=O)N(Cc3cccc(Cl)c3N(C)C)C[C@@H]2N1C(=O)NCc1ccccc1 [compound 122] | 1.54 ± 0.07 µM
35 | C=CCN1CC(=O)N2[C@@H](Cc3ccc(O)cc3)C(=O)N(Cc3cccc(-c4ccccc4O)c3)C[C@@H]2N1C(=O)NCc1ccccc1 [compound 115] | 1.43 ± 0.27 µM
36 | C=CCN1CC(=O)N2[C@@H](Cc3ccc(O)cc3)C(=O)N(Cc3cccc(C(=O)NN)c3)C[C@@H]2N1C(=O)NCc1ccccc1 [compound 160] | 14.2 ± 2.05 µM
37 | C=CCN1CC(=O)N2[C@@H](Cc3ccc(O)cc3)C(=O)N(Cc3cn(C)c4ccccc34)C[C@@H]2N1C(=O)NCc1ccccc1 [compound 67] | 0.85 ± 0.089 µM
38 | C=CCN1CC(=O)N2[C@@H](Cc3ccc(O)cc3)C(=O)N(Cc3cccc(-c4ccncc4)c3)C[C@@H]2N1C(=O)NCc1ccccc1 [compound 34] | 0.58 ± 0.132 µM
39 | C=CCN1CC(=O)N2[C@@H](Cc3ccc(O)cc3F)C(=O)N(Cc3ccc(F)cc3F)C[C@@H]2N1C(=O)NCc1ccccc1 [compound 74] | 0.91 ± 0.11 µM
40 | C=CCN1CC(=O)N2[C@@H](Cc3ccc(O)cc3)C(=O)N(Cc3csc4c(N)cccc34)C[C@@H]2N1C(=O)NCc1ccccc1 [compound 206] | 3.18 ± 0.75 µM
41 | C=CCN1CC(=O)N2C(Cc3ccc(O)cc3)C(=O)N(Cc3ccccc3N3CCNCC3)CC2N1C(=O)NCc1ccccc1 (centres unmarked) [compound 221] | 36.1 ± 2.69 µM
42 | C=CCN1CC(=O)N2[C@@H](Cc3ccc(O)cc3)C(=O)N(Cc3csc4cc(NS(N)(=O)=O)ccc34)C[C@@H]2N1C(=O)NCc1ccccc1 [compound 202] | 28.8 ± 5.69 µM
43 | C=CCN1CC(=O)N2[C@@H](Cc3ccc(O)cc3)C(=O)N(Cc3ccc4ccn(S(=O)(=O)c5ccc(C)cc5)c4c3)C[C@@H]2N1C(=O)NCc1ccccc1 [compound 174] | 2.33 ± 0.64 µM
44 | C=CCN1CC(=O)N2[C@@H](Cc3ccc(O)cc3)C(=O)N(Cc3cccc(OC)c3OCC3CC3)C[C@@H]2N1C(=O)NCc1ccccc1 [compound 79] | 0.95 ± 0.21 µM
45 | C=CCN1CC(=O)N2[C@@H](Cc3ccc(O)cc3)C(=O)N(Cc3cccc(C(=O)NC)c3[N+](=O)[O-])C[C@@H]2N1C(=O)NCc1ccccc1 [compound 258] | 7.51 ± 2.1 µM
46 | C=CCN1CC(=O)N2[C@@H](Cc3ccc(O)cc3)C(=O)N(Cc3ccc(F)c4scnc34)C[C@@H]2N1C(=O)NCc1cccs1 [compound 107] | 1.3 ± 0.2 µM
47 | C=CCN1CC(=O)N2[C@@H](Cc3ccc(O)cc3)C(=O)N(Cc3c[nH]c4ccc(OC)cc34)C[C@@H]2N1C(=O)NCc1ccccc1 [compound 253] | 7.1 ± 0.99 µM
48 | C#Cc1ccc(CNC(=O)N2[C@H]3CN(Cc4ccc(F)c5scnc45)C(=O)[C@H](Cc4ccc(O)cc4)N3C(=O)CN2CC=C)cc1 [compound 44] | 0.67 ± 0.05 µM
49 | C=CCN1CC(=O)N2[C@@H](Cc3ccc(O)cc3)C(=O)N(Cc3cccc(NS(C)(=O)=O)c3)C[C@@H]2N1C(=O)NCc1ccccc1 [compound 181] | 2.47 ± 0.37 µM
50 | C=CCN1CC(=O)N2[C@@H](Cc3ccc(O)cc3)C(=O)N(Cc3csc4cc([N+](=O)[O-])ccc34)C[C@@H]2N1C(=O)NCc1ccccc1 [compound 75] | 0.92 ± 0.14 µM

Same assay, conditions: Homo sapiens, SW480, read-out: RGA, IC50 (μM) TopF

Row | Structure (SMILES) | IC50
51 | C=CCN1CC(=O)N2[C@@H](Cc3ccc(O)cc3)C(=O)N(Cc3csc4c([N+](=O)[O-])cccc34)C[C@@H]2N1C(=O)NCc1ccccc1 [compound 148] | 10 ± 1.7 µM

Same assay, conditions: Homo sapiens, SW480; read-out: RGA, IC50 (μM) TopF

Row | Structure (SMILES) | IC50
52 | C=CCN1CC(=O)N2[C@@H](Cc3ccc(OP(=O)(O)O)cc3)C(=O)N(Cc3cccc4c3oc3ccccc34)C[C@@H]2N1C(=O)NCc1ccccc1 [compound 13] | 0.36 ± 0.13 µM
53 | C=CCN1CC(=O)N2[C@@H](Cc3ccc(OP(=O)(O)O)cc3)C(=O)N(Cc3cccc4ccnn34)C[C@@H]2N1C(=O)NCc1ccccc1 [compound 92] | 1.04 ± 0.18 µM
54 | C=CCOc1c(CN2C[C@H]3N(C(=O)CN(CC=C)N3C(=O)NCc3ccccc3)[C@@H](Cc3ccc(O)cc3)C2=O)cccc1OC [compound 90] | 1.03 ± 0.16 µM
55 | C=CCN1CC(=O)N2[C@@H](Cc3ccc(OP(=O)(O)O)cc3)C(=O)N(Cc3ccccc3SC)C[C@@H]2N1C(=O)NCc1ccccc1 [compound 42] | 0.66 ± 0.0079 µM
56 | C=CCN1CC(=O)N2[C@@H](Cc3ccc(OP(=O)(O)O)cc3)C(=O)N(Cc3ccccc3N3CCCC3)C[C@@H]2N1C(=O)NCc1ccccc1 [compound 112] | 1.41 ± 0.21 µM
